In patent publication US11261201B2 (priority 2018, dated 2022):
Converted amounts (≈) assume the structure as drawn. Where a name gives a salt, the structure may show the parent alone. Read-outs that look alike come from different tables or passages of the source.

Columns and labels:
E. coli = test: Gram negative MIC protocol (OD600, LB, 24 h); conditions: Escherichia coli
Method: (§1) Overnight bacterial cultures were grown in LB with no added antibiotics at 37° C. with shaking. A 1:1000 dilution of these cultures into LB was exposed to concentration gradients of compounds in 96-well plates (100 μL per well assay volume). Resulting plates were incubated at 37° C. for 24 h without shaking, and OD600 was measured at the end of the incubation. MICs were determined as the lowest concentrations at which OD600 remained at baseline.

A. baumannii = test: Gram negative MIC protocol (OD600, LB, 24 h); conditions: Acinetobacter baumannii
Method: as §1

H37RvMA = test: Tuberculosis Alamar Blue/Resazurin assay (MIC); assay type: cell-based; conditions: Mycobacterium tuberculosis, H37RV, read-out: WT H37Rv MTB Activity
[1] = read-out: MIC E. coli delta-TolC LB Media, E. coli delta-TolC, LB media, OD600
[2] = read-out: MIC WT E. coli LB Media, WT E. coli, LB media, OD600
[3] = read-out: MIC A. baumannii LB Media, A. baumannii, LB media, 24 h, OD600
[4] = read-out: MIC E. coli delta-TolC LB Media, E. coli delta-TolC strain, LB media, 24 h, OD600
[5] = read-out: MIC WT E. coli LB Media, wild-type E. coli, LB media, 24 h, OD600
[6] = read-out: MIC A. baumannii LB Media

Row | Structure (SMILES) | MIC (E. coli; [1]) [µM] | MIC (E. coli; [2]) [µM] | MIC (A. baumannii; [3]) [µM] | MIC (H37RvMA; WT H37Rv MTB) [µM] | MIC (E. coli; [4]) [µM] | MIC (E. coli; [5]) [µM] | MIC (A. baumannii; [6]) [µM] | MIC (H37RvMA) [µM]
1 | Cc1ccc(CNCCC2=CCCCC2)cc1 [B10, 2-(cyclohex-1-en-1-yl)-N-(4-methylbenzyl)ethan-1-amine] | > 150 | > 150 | > 150 | > 150 |  |  |  | 
2 | c1ccc(CNCC2CCCCC2)cc1 [B9] | > 150 | > 150 | > 150 | > 150 |  |  |  | 
3 | CC(CC1CCCCC1)NCc1ccccc1OCCCN1CCOC1=O (stereo not drawn) [B264] |  |  | 150 (≈ 56.2 µg/mL) | > 150 | 3 (≈ 1.12 µg/mL) | 150 (≈ 56.2 µg/mL) |  | 
4 | c1ccc(CNCCN2CCc3sccc3C2)cc1 [B140] | > 150 | > 150 | > 150 | > 150 |  |  |  | 
5 | CC(CC1CCCCC1)NCc1ccccc1OCc1ccccc1Cl (stereo not drawn) [B382] |  |  | 55 (≈ 20.5 µg/mL) | 12.2 (≈ 4.54 µg/mL) | 3 (≈ 1.12 µg/mL) | 55 (≈ 20.5 µg/mL) |  | 
6 | c1ccc(CNCCC2CCCOC2)cc1 (stereo not drawn) [B83] | > 150 | > 150 | > 150 | > 150 |  |  |  | 
7 | CC(CC1CCCCC1)NCc1ccccc1OCC1CCCO1 (stereo not drawn) [B297] |  |  | 150 (≈ 49.7 µg/mL) | > 150 | 7 (≈ 2.32 µg/mL) | > 150 |  | 
8 | Cc1cc(COc2ccccc2CNC(C)CC2CCCCC2)no1 (stereo not drawn) [B282] |  |  | > 150 | 150 (≈ 51.4 µg/mL) | 3 (≈ 1.03 µg/mL) | > 150 |  | 
9 | CC(CC1CCCCC1)NCc1ccccc1OCc1ccccc1I (stereo not drawn) [B388, 1-cyclohexyl-N-(2-((2-iodobenzyl)oxy)benzyl)propan-2-amine] |  |  | 33 (≈ 15.3 µg/mL) | 33.4 (≈ 15.5 µg/mL) | 7 (≈ 3.24 µg/mL) | 150 (≈ 69.5 µg/mL) |  | 
10 | CC(CC1CCCCC1)NCc1ccccc1OCC1CC1 (stereo not drawn) [B287] |  |  | 91 (≈ 27.4 µg/mL) | 150 (≈ 45.2 µg/mL) | 3 (≈ 0.904 µg/mL) | 150 (≈ 45.2 µg/mL) |  | 
11 | c1ccc(CNCCc2cccc3cccnc23)cc1 [B42] | > 150 | > 150 | > 150 | > 150 |  |  |  | 
12 | c1ccc(-c2ccccc2CNCCC2CCCCC2)cc1 [B229, N-(biphenyl-2-ylmethyl)-2-cyclohexylethanamine hydrochloride] |  |  | 96 | 33 | 7 | 170 |  | 
13 | OC1(CNCc2ccccc2)C2C3CC4C5C3CC2C5C41 (stereo not drawn) [B37] | > 150 | > 150 | > 150 | 150 (≈ 42.2 µg/mL) |  |  |  | 
14 | c1ccc(CNCCC23CCCCC2C3)cc1 (stereo not drawn) [B182] | > 300 | > 300 | > 300 | 91 (≈ 20.9 µg/mL) |  |  |  | 
15 | COc1ccc(CC(C)(C)NCc2ccccc2)cc1 [B50] | > 150 | > 150 |  |  |  |  | > 150 | > 150
16 | CC(C)(CC1CCCCCC1)NCc1ccccc1 [B92] | > 150 | > 150 | > 150 | > 150 |  |  |  | 
17 | C[C@H](NCc1ccccc1)C1CCCc2ccccc21 (stereo partly drawn) [B113] | > 150 | > 150 | > 150 | > 150 |  |  |  | 
18 | COc1cccc2c1B(O)OC2CNCc1ccccc1 (stereo not drawn) [B220, 3-((benzylamino)methyl)-7-methoxybenzo[c][1,2]oxaborol-1(3H)-ol hydrochloride] |  |  | > 300 | > 150 | > 300 | > 300 |  | 
19 | CC(CC1CCCCC1)NCc1ccccc1OCC1CC2CCC1C2 (stereo not drawn) [B386, N-(2-(bicyclo[2.2.1]heptan-2-ylmethoxy)benzyl)-1-cyclohexylpropan-2-amine] |  |  | 55 (≈ 19.6 µg/mL) | 20.2 (≈ 7.18 µg/mL) | 5 (≈ 1.78 µg/mL) | > 150 |  | 
20 | c1ccc(CNCCc2cccc3c2NCCC3)cc1 [B105] | > 150 | > 150 | > 150 | 91 (≈ 24.2 µg/mL) |  |  |  | 
21 | CC(CC1CCCCC1)NCc1ccccc1OCCOC1CCCC1 (stereo not drawn) [B260] |  |  | > 150 | 91 (≈ 32.7 µg/mL) | 7 (≈ 2.52 µg/mL) | > 150 |  | 
22 | CC(CC1CCCCC1)NCc1cccc2ccn(Cc3ccccc3)c12 (stereo not drawn) [B423, N-((1-benzyl-1H-indol-7-yl)methyl)-1-cyclohexylpropan-2-amine] | 55 (≈ 19.8 µg/mL) | > 150 | > 150 | 150 (≈ 54.1 µg/mL) |  |  |  | 
23 | CC(C)C[C@H](N)C(=O)NS(=O)(=O)Cc1ccccc1CNC(C)CC1CCCCC1 (stereo partly drawn) [B428, (2S)-2-amino-N-((2-(((1-cyclohexylpropan-2-yl)amino)methyl)benzyl)sulfonyl)-4-methylpentanamide dihydrochloride] | 55 | > 150 | > 150 | > 150 |  |  |  | 
24 | c1ccc(CNCCN2CCc3ccccc3C2)cc1 [B129] | > 150 | > 150 | > 150 | > 150 |  |  |  | 
25 | CC(CC1CCCCC1)NCc1ccccc1O (stereo not drawn) [B319] |  |  |  |  | 12 (≈ 2.97 µg/mL) | 33 (≈ 8.16 µg/mL) | > 150 | 150 (≈ 37.1 µg/mL)
26 | CC(CC1CCCCC1)NCc1ccccc1OCCc1ccccc1F (stereo not drawn) [B429, 1-cyclohexyl-N-(2-(2-fluorophenethoxy)benzyl)propan-2-amine] | 2 (≈ 0.739 µg/mL) | 55 (≈ 20.3 µg/mL) | 33 (≈ 12.2 µg/mL) | 20.2 (≈ 7.46 µg/mL) |  |  |  | 

Row | Structure (SMILES) | MIC (E. coli; [1]) [µM] | MIC (E. coli; [2]) [µM] | MIC (A. baumannii; [3]) [µM] | MIC (H37RvMA; WT H37Rv MTB) [µM] | MIC (E. coli; [4]) [µM] | MIC (E. coli; [5]) [µM] | MIC (A. baumannii; [6]) [µM] | MIC (H37RvMA) [µM]
27 | OC1(CCNCc2ccccc2)CCCCC1Cl (stereo not drawn) [B188] | > 300 | > 300 | > 300 | > 150 |  |  |  | 
28 | NC(=O)Nc1ccccc1CNCCC1CCCCC1 [B373] |  |  | > 150 | > 150 | 150 (≈ 41.3 µg/mL) | > 150 |  | 
29 | CC(CC1CCCCC1)NCc1ccccc1OC1CCC(F)(F)CC1 (stereo not drawn) [B396, 1-cyclohexyl-N-(2-((4,4-difluorocyclohexyl)oxy)benzyl)propan-2-amine] |  |  | 150 (≈ 54.8 µg/mL) | 55.1 (≈ 20.1 µg/mL) | 3 (≈ 1.1 µg/mL) | 150 (≈ 54.8 µg/mL) |  | 
30 | CC(Cc1ncccn1)NCc1ccccc1 (stereo not drawn) [B82] | > 150 | > 150 | > 150 |  |  |  |  | > 150
31 | CC(CC1CCCCC1)NCc1ccccc1CS(=O)(=O)N1CCN(C)CC1 (stereo not drawn) [B439, 1-cyclohexyl-N-(2-(((4-methylpiperazin-1-yl)sulfonyl)methyl)benzyl)propan-2-amine] | 12 (≈ 4.89 µg/mL) | 91 (≈ 37.1 µg/mL) | 150 (≈ 61.1 µg/mL) | > 150 |  |  |  | 
32 | CC(CC1CCCCC1)NCc1ccccc1OCC(=O)N1CC(C)OC(C)C1 (stereo not drawn) [B333] |  |  | > 150 | > 150 | 7 (≈ 2.82 µg/mL) | > 150 |  | 
33 | CCN(CC)CCOc1ccccc1CNC(C)CC1CCCCC1 (stereo not drawn) [B249] |  |  | > 150 | > 150 | > 150 | > 150 |  | 
34 | COCCOc1ccccc1CNC(C)CC1CCCCC1 (stereo not drawn) [B294] |  |  | > 150 | > 150 | 7 (≈ 2.14 µg/mL) | > 150 |  | 
35 | c1ccc(CNCCC2CCOCC2)cc1 [B25] | > 150 | > 150 | > 150 | > 150 |  |  |  | 
36 | O=C(O)C1CCCCC1CCNCc1ccccc1 (stereo not drawn) [B184] | > 300 | > 300 | > 300 | > 150 |  |  |  | 
37 | OB(O)c1ccccc1CNCCC1CCCCC1 [B340, 2-((2-cyclohexylethylamino)methyl)phenylboronic acid] |  |  | > 150 | > 150 | 55 (≈ 14.4 µg/mL) | > 150 |  | 
38 | COc1cccc(COc2ccccc2CNC(C)CC2CCCCC2)c1 (stereo not drawn) [B459, 1-cyclohexyl-N-(2-((3-methoxybenzyl)oxy)benzyl)propan-2-amine] | 2 (≈ 0.735 µg/mL) | 55 (≈ 20.2 µg/mL) | 91 (≈ 33.4 µg/mL) | 17 (≈ 6.25 µg/mL) |  |  |  | 
39 | c1ccc(CCNCc2ccccc2)cc1 [B181] | > 300 | > 300 |  |  |  |  | > 300 | > 150
40 | c1ccc(CNCC2CC3CCC2CC3)cc1 (stereo not drawn) [B123] | > 150 | > 150 | > 150 | 150 (≈ 34.4 µg/mL) |  |  |  | 
41 | CC(CC1CCCCC1)NCc1ccccc1OCCOCC(F)(F)C(F)(F)F (stereo not drawn) [B262] |  |  | 91 (≈ 38.5 µg/mL) | 55 (≈ 23.3 µg/mL) | 12 (≈ 5.08 µg/mL) | 150 (≈ 63.5 µg/mL) |  | 
42 | CC(CC1CCCCC1)NCc1ccccc1OCCOCC(F)(F)F (stereo not drawn) [B305] |  |  | 91 (≈ 34 µg/mL) | 150 (≈ 56 µg/mL) | 3 (≈ 1.12 µg/mL) | > 150 |  | 
43 | CC(CC1CCCCC1)NCc1ccccc1NCc1ccccc1F (stereo not drawn) [B397, 2-(((1-cyclohexylpropan-2-yl)amino)methyl)-N-(2-fluorobenzyl)aniline dihydrochloride] |  |  | > 150 | 12.2 | 5 | > 150 |  | 
44 | CC(CC1CCCCC1)NCc1ccccc1OCCN(C)C (stereo not drawn) [B315] |  |  | 150 (≈ 47.8 µg/mL) | > 150 | 150 (≈ 47.8 µg/mL) | 91 (≈ 29 µg/mL) |  | 
45 | Cc1cccc(C)c1CNCCC1=CCCCC1 [B73] | > 150 | > 150 | > 150 | > 150 |  |  |  | 
46 | O=C1CCC(CCNCc2ccccc2)CC1 [B218, 4-(2-(benzylamino)ethyl) cyclohexanone] |  |  | > 300 | > 150 | > 300 | > 300 |  | 
47 | CC(CC1CCCCC1)NCc1ccccc1CS(=O)(=O)NCC(=O)O (stereo not drawn) [B448, ((2-(((1-cyclohexylpropan-2-yl)amino)methyl)benzyl)sulfonyl)glycine] | > 150 | > 150 | > 150 | > 150 |  |  |  | 
48 | COC1CCCCC1CCNCc1ccccc1 (stereo not drawn) [B190] | > 300 | > 300 | > 300 | > 150 |  |  |  | 
49 | CC(CC1CCCCC1)NCc1ccccc1OC(F)F (stereo not drawn) [B291] |  |  | > 150 | > 150 | 12 (≈ 3.57 µg/mL) | 91 (≈ 27.1 µg/mL) |  | 
50 | C[Si](C)(C)c1ccccc1CNCCC1CCCCC1 [B341, 2-cyclohexyl-N-(2-(trimethylsilyl)-benzyl)ethanamine hydrochloride] |  |  |  |  | 7 | > 150 | > 150 | 150
51 | COC(=O)c1cc(COc2ccccc2CNC(C)CC2CCCCC2)oc1C (stereo not drawn) [B272] |  |  | > 150 | 150 (≈ 59.9 µg/mL) | 12 (≈ 4.79 µg/mL) | > 150 |  | 
